# Like-named read-outs stand apart in the source and are kept apart here.
# Test system: Anopheles stephensi
# Assay: Anopheles stephensi treated well plate contact test: knockdown and mortality
# Format: in vivo
# Conditions: for mortality at 0.2 ppm / pest or weed control at 0.2 ppm: test compound 0.2 ppm; for mortality at 2 ppm / pest or weed control at 2 ppm: test compound 2 ppm; for mortality at 20 ppm / pest or weed control at 20 ppm: test compound 20 ppm; for mortality at 200 ppm / pest or weed control at 200 ppm: test compound 200 ppm; for pest or weed control at 200 ppm: adult females
# Protocol: Examples Anopheles stephensi (Indian Malaria Mosquito)
# The individual wells of twelve (12) well tissue culture plates were treated with 200 μl of an ethanol solution containing a test compound of Table 1 or Table 2 at a defined concentration and repeated with also 200 μl of an ethanol solution containing in addition 2 ppm TFNA-AM. Once the deposits were dry, five non-blood fed adult female Anopheles stephensi (between two to five day old) were added to each well, and sustained with a 10% sucrose solution in a cotton wool plug. Assessment of the knockdown after 1 hour, and mortality after 24 and 48 hours was carried out.
# In case of multiple tests, the mean value is reported.
# [1] = Anopheles stephensi, without TFNA-AM, after 24 hours, read-out: mortality % 24, without TFNA-AM
# [2] = Anopheles stephensi, without TFNA-AM, after 48 hours, read-out: mortality % 48, without TFNA-AM
# [3] = Anopheles stephensi, without TFNA-AM, knockdown after 1 hour, read-out: Knock Down, without TFNA-AM
# [4] = test compound 0.2 ppm plus 2 ppm TFNA-AM, after 24 hours
# [5] = test compound 0.2 ppm plus 2 ppm TFNA-AM, after 48 hours
# [6] = test compound 0.2 ppm plus 2 ppm TFNA-AM, knockdown after 1 hour
# [7] = test compound 2 ppm plus 2 ppm TFNA-AM, after 24 hours
# [8] = test compound 2 ppm plus 2 ppm TFNA-AM, after 48 hours
# [9] = test compound 2 ppm plus 2 ppm TFNA-AM, knockdown after 1 hour
# [10] = test compound 20 ppm plus 2 ppm TFNA-AM, after 24 hours
# [11] = test compound 20 ppm plus 2 ppm TFNA-AM, after 48 hours
# [12] = test compound 20 ppm plus 2 ppm TFNA-AM, knockdown after 1 hour
# [13] = test compound 200 ppm plus 2 ppm TFNA-AM, after 24 hours
# [14] = test compound 200 ppm plus 2 ppm TFNA-AM, after 48 hours
# [15] = test compound 200 ppm plus 2 ppm TFNA-AM, knockdown after 1 hour
Compound,mortality at 0.2 ppm [1],mortality at 0.2 ppm [2],pest or weed control at 0.2 ppm [3],mortality at 2 ppm [1],mortality at 2 ppm [2],pest or weed control at 2 ppm [3],mortality at 20 ppm [1],mortality at 20 ppm [2],pest or weed control at 20 ppm [3],mortality at 200 ppm [1],mortality at 200 ppm [2],pest or weed control at 200 ppm [3],"mortality % 48, with TFNA-AM [5]","Knock Down, with TFNA-AM [6]","mortality % 24, with TFNA-AM [7]","mortality % 48, with TFNA-AM [8]","Knock Down, with TFNA-AM [9]","mortality % 24, with TFNA-AM [10]","mortality % 48, with TFNA-AM [11]","Knock Down, with TFNA-AM [12]",also measured
CC(C)N1C(=O)N(c2ccccc2)CS/C1=N\C(C)(C)C [Buprofezin],0%,0%,0%,0%,0%,0%,0%,0%,0%,0%,0%,0%,60%,100%,100%,60%,100%,100%,60%,100%,"mortality % 24, with TFNA-AM [4]: 80%; mortality % 24, with TFNA-AM [13]: 80%; mortality % 48, with TFNA-AM [14]: 40%; Knock Down, with TFNA-AM [15]: 100%"
CN/C(=N\[N+](=O)[O-])NCc1cnc(Cl)s1 [Clothianidin],0%,0%,0%,0%,0%,0%,0%,20%,0%,0%,20%,0%,0%,100%,100%,100%,100%,100%,100%,100%,"mortality % 24, with TFNA-AM [13]: 100%; mortality % 48, with TFNA-AM [14]: 100%; Knock Down, with TFNA-AM [15]: 100%"
CO/C=C(/C(=O)OC)c1ccccc1Oc1nc(C(C)(C)C)ns1 [Compound 48],0%,0%,20%,100%,100%,60%,100%,100%,100%,100%,100%,100%,100%,100%,100%,100%,100%,100%,100%,100%,"mortality % 24, with TFNA-AM [4]: 80%; mortality % 24, with TFNA-AM [13]: 100%; mortality % 48, with TFNA-AM [14]: 100%; Knock Down, with TFNA-AM [15]: 100%"
CO/C=C(/C(=O)OC)c1ccccc1Oc1cc(C(F)(F)F)ccn1 [Compound 49],0%,0%,0%,60%,60%,0%,100%,100%,50%,100%,100%,50%,10%,90%,90%,90%,100%,100%,90%,100%,"mortality % 24, with TFNA-AM [4]: 50%; mortality % 24, with TFNA-AM [13]: 100%; mortality % 48, with TFNA-AM [14]: 90%; Knock Down, with TFNA-AM [15]: 100%"
CO/C=C(/C(=O)OC)c1ccccc1Oc1ncc(C(F)(F)F)s1 [Compound 54],0%,0%,0%,60%,40%,0%,100%,100%,100%,100%,100%,100%,10%,90%,100%,100%,100%,100%,100%,100%,"mortality % 24, with TFNA-AM [13]: 100%; mortality % 48, with TFNA-AM [14]: 100%; Knock Down, with TFNA-AM [15]: 100%"
CC1(C)C(C=C(Cl)Cl)C1C(=O)OC(C#N)c1cccc(Oc2ccccc2)c1 (stereo not drawn) [Cypermethrin],0%,40%,0%,100%,100%,100%,100%,100%,100%,–,–,–,100%,100%,100%,100%,100%,100%,100%,100%,"mortality at 0.02 ppm (Anopheles stephensi, test compound 0.02 ppm, without TFNA-AM, after 24 hours, read-out: mortality % 24, without TFNA-AM): 0%; mortality at 0.02 ppm (Anopheles stephensi, test compound 0.02 ppm, without TFNA-AM, after 48 hours, read-out: mortality % 48, without TFNA-AM): 20%; pest or weed control at 0.02 ppm (Anopheles stephensi, test compound 0.02 ppm, without TFNA-AM, knockdown after 1 hour, read-out: Knock Down, without TFNA-AM): 0%; mortality % 24, with TFNA-AM (test compound 0.02 ppm plus 2 ppm TFNA-AM, after 24 hours): 80%; Knock Down, with TFNA-AM (test compound 0.02 ppm plus 2 ppm TFNA-AM, knockdown after 1 hour): 100%; mortality % 24, with TFNA-AM [4]: 100%"
Nc1nc(N)nc(NC2CC2)n1 [Cyromazine],0%,0%,0%,0%,0%,0%,0%,0%,0%,0%,0%,0%,0%,100%,20%,0%,100%,60%,40%,100%,"mortality % 24, with TFNA-AM [4]: 20%; mortality % 24, with TFNA-AM [13]: 80%; mortality % 48, with TFNA-AM [14]: 40%; Knock Down, with TFNA-AM [15]: 100%"
CC(C)c1cc(Oc2ccccc2)cc(C(C)C)c1NC(=S)NC(C)(C)C [Diafenthiuron],0%,20%,60%,0%,20%,100%,0%,0%,100%,100%,100%,100%,0%,100%,100%,60%,100%,100%,80%,100%,"mortality % 24, with TFNA-AM [4]: 60%; mortality % 24, with TFNA-AM [13]: 100%; mortality % 48, with TFNA-AM [14]: 100%; Knock Down, with TFNA-AM [15]: 100%"

# Reference: patent US20260206755A1, “COMPOUNDS AND COMPOSITIONS HAVING KNOCK-DOWN OR BLOOD FEED INHIBITION ACTIVITY AGAINST INSECT PESTS” (priority 2017, published 2026)
